Activity calls are given as the source filed them. The calls are words filed in the database; no cut-off is given here.
Assays:
[1] = target: Gamma-secretase (Homo sapiens) (UniProt Q96BI3+Q9NZ42+Q8WW43+P49768+Q92542+P49810); assay: (§1) Modulation of gamma-secretase in human H4 cells expressing human wild type APP751 assessed as reduction in amyloid beta42 level incubated overnight by ELISA; assay type: cell-based; details: filed as modulator
Gamma-secretase = assay: as §1; assay type: cell-based
[2] = Unbound clearance in human hepatocytes; assay type: ADME, cell-based, Hepatocyte
Mus musculus = assay: In vivo modulation of gamma secretase in mouse assessed as reduction in Abeta42 levels in brain at 30 mg/kg, po measured after 6 hrs relative to control; assay type: functional; set-up: scale not given: the % may be the effect or the level left
Rattus norvegicus [3] = assay: In vivo modulation of gamma secretase in rat assessed as reduction in Abeta42 levels in brain by measuring AUC(0 to 24 hrs) at 30 mg/kg, po by ELISA; assay type: functional; set-up: scale not given: the % may be the effect or the level left
Rattus norvegicus [4] = assay: In vivo modulation of gamma secretase in rat assessed as reduction in Abeta40 levels in CSF by measuring AUC(0 to 24 hrs) at 30 mg/kg, po by ELISA; assay type: functional, Cerebrospinal fluid; set-up: scale not given: the % may be the effect or the level left
Rattus norvegicus [5] = assay: In vivo modulation of gamma secretase in rat assessed as reduction in Abeta37 levels in CSF by measuring AUC(0 to 24 hrs) at 30 mg/kg, po by ELISA; assay type: functional, Cerebrospinal fluid; set-up: scale not given: the % may be the effect or the level left
Rattus norvegicus [6] = assay: In vivo modulation of gamma secretase in rat assessed as reduction in Abeta42 levels in brain at 30 mg/kg, po measured at 16 hrs by ELISA relative to control; assay type: functional; set-up: scale not given: the % may be the effect or the level left
Rattus norvegicus [7] = assay: In vivo modulation of gamma secretase in rat assessed as reduction in Abeta40 levels in brain at 30 mg/kg, po measured at 16 hrs by ELISA relative to control; assay type: functional; set-up: scale not given: the % may be the effect or the level left
Rattus norvegicus [8] = assay: In vivo modulation of gamma secretase in rat assessed as reduction in Abeta40 levels in CSF at 30 mg/kg, po measured at 9 hrs by ELISA relative to control; assay type: functional, Cerebrospinal fluid; set-up: scale not given: the % may be the effect or the level left
[9] = In vivo modulation of gamma secretase in nonhuman primate assessed as reduction in Abeta42 levels in CSF by measuring AUC(0 to 48 hrs) at 30 mg/kg, po by ELISA; assay type: functional, Primates, Cerebrospinal fluid; set-up: scale not given: the % may be the effect or the level left
[10] = In vivo modulation of gamma secretase in nonhuman primate assessed as reduction in Abeta42 levels in CSF at 30 mg/kg, po measured after 12 hrs by ELISA relative to control; assay type: functional, Primates, Cerebrospinal fluid; set-up: scale not given: the % may be the effect or the level left
[11] = AUClast in dog at 10 mg/kg, po; assay type: ADME, organism-based, Canis lupus familiaris; set-up: route oral, time 0 - last, dose 10 mg/kg; details: in vivo
[12] = Cmax in rat at 3 mg/kg, po; assay type: ADME, organism-based; set-up: route oral, dose 3 mg/kg; details: in vivo
[13] = Cmax in nonhuman primate at 10 mg/kg, po; assay type: ADME, organism-based; set-up: route oral, dose 10 mg/kg; details: primates, in vivo
[14] = Bioavailability in rat at 1 mg/kg, iv; assay type: ADME, organism-based; details: in vivo
[15] = Bioavailability in dog at 0.5 mg/kg, iv; assay type: ADME, organism-based, Canis lupus familiaris; details: in vivo
[16] = Bioavailability in nonhuman primate at 1 mg/kg, iv; assay type: ADME, organism-based; details: primates, in vivo
[17] = Half life in rat at 1 mg/kg, iv; assay type: ADME, organism-based; details: in vivo
[18] = Half life in dog at 0.5 mg/kg, iv; assay type: ADME, organism-based, Canis lupus familiaris; details: in vivo
[19] = Half life in nonhuman primate at 1 mg/kg, iv; assay type: ADME, organism-based; details: primates, in vivo
[20] = Volume of distribution at steady state in rat at 1 mg/kg, iv; assay type: ADME, organism-based; details: in vivo, read-out: Vdss
[21] = Volume of distribution at steady state in dog at 0.5 mg/kg, iv; assay type: ADME, organism-based, Canis lupus familiaris; details: in vivo, read-out: Vdss
[22] = Volume of distribution at steady state in nonhuman primate at 1 mg/kg, iv; assay type: ADME, organism-based; details: primates, in vivo, read-out: Vdss
[23] = Clearance in rat at 1 mg/kg, iv; assay type: ADME, organism-based; details: in vivo
[24] = Clearance in dog at 0.5 mg/kg, iv; assay type: ADME, organism-based, Canis lupus familiaris; details: in vivo
[25] = Clearance in nonhuman primate at 1 mg/kg, iv; assay type: ADME, organism-based; details: primates, in vivo
[26] = Clearance in rat blood relative to hepatic blood flow; assay type: ADME, tissue-based
[27] = Clearance in dog blood relative to hepatic blood flow; assay type: ADME, tissue-based, Canis lupus familiaris
[28] = Clearance in nonhuman primate blood relative to hepatic blood flow; assay type: ADME, tissue-based; details: primates
[29] = Drug metabolism in rat hepatocytes assessed as mono and di-oxidative metabolites formation after 4 hrs; assay type: ADME, cell-based, Hepatocyte
[30] = Drug metabolism in monkey hepatocytes assessed as mono and di-oxidative metabolites formation after 4 hrs; assay type: ADME, cell-based, Macaca mulatta, Hepatocyte; details: rhesus monkey
Cytochrome P450 2C9 = Cytochrome P450 2C9 (Homo sapiens, UniProt P11712); assay: Inhibition of CYP2C9 (unknown origin); assay type: ADME
Sequence of Cytochrome P450 2C9 (P11712 whole entry): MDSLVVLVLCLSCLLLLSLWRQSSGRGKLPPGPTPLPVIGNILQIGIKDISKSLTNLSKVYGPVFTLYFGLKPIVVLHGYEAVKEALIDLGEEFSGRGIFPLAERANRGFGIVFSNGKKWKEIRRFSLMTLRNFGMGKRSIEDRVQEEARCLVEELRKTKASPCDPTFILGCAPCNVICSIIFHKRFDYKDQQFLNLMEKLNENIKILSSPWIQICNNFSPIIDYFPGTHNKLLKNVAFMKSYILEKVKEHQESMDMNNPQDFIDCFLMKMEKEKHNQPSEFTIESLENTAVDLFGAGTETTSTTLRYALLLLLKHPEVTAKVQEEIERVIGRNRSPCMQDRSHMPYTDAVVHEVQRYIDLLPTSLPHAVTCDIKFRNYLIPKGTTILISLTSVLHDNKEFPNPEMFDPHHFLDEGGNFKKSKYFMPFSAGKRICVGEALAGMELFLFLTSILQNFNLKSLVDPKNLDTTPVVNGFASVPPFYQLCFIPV

Cytochrome P450 2D6 = Cytochrome P450 2D6 (Homo sapiens, UniProt P10635); assay: Inhibition of CYP2D6 (unknown origin); assay type: ADME
Sequence of Cytochrome P450 2D6 (P10635 whole entry): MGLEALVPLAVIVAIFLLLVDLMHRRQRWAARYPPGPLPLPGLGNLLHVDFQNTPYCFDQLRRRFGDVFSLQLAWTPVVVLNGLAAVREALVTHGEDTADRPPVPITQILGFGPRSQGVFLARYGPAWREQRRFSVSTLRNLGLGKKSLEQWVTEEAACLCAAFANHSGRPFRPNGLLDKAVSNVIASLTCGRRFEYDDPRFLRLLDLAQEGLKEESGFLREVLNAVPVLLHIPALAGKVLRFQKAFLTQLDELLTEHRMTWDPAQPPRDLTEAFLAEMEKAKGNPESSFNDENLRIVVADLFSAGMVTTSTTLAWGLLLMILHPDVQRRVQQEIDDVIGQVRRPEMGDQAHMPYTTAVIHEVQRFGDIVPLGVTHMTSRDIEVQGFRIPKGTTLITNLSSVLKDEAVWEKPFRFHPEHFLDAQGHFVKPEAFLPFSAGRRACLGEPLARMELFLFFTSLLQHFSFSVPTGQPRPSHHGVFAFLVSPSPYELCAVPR

Cytochrome P450 2B6 = target: T1, Cytochrome P450 2B6 (Homo sapiens, UniProt P20813); assay: Inhibition of CYP2B6 in human hepatocytes upto 50 uM incubated for 72 hrs; assay type: ADME, cell-based, Hepatocyte
T1 sequence (P20813 whole entry): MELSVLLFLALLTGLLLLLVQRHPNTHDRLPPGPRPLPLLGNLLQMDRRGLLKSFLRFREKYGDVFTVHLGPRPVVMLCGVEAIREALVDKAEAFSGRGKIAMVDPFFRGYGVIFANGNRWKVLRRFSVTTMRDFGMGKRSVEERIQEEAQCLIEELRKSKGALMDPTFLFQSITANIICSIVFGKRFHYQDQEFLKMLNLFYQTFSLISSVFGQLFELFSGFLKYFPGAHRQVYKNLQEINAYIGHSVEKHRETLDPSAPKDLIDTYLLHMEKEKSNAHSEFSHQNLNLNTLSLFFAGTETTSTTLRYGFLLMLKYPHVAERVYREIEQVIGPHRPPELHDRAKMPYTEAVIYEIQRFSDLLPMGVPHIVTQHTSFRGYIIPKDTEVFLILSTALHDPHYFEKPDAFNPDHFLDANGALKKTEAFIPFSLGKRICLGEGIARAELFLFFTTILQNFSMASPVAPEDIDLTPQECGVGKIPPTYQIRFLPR

[31] = target: 5-hydroxytryptamine receptor 2B (Homo sapiens) (UniProt P41595); assay: Inhibition of serotonin 2B receptor (unknown origin) at 10 uM relative to control
Sequence of 5-hydroxytryptamine receptor 2B (Homo sapiens) (P41595 whole entry): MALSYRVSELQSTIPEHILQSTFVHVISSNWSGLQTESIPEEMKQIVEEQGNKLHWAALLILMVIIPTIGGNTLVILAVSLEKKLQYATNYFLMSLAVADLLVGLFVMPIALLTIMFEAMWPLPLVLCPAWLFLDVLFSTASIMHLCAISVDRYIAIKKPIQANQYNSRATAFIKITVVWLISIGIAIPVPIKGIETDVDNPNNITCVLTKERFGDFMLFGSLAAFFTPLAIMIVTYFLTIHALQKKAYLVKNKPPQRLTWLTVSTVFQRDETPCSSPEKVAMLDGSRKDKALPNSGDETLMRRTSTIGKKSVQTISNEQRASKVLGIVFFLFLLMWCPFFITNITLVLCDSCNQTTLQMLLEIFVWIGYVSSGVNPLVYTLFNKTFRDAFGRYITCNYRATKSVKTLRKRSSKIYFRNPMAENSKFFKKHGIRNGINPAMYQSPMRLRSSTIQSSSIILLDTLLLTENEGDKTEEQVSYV

[32] = target: Vasopressin V1a receptor (Homo sapiens) (UniProt P37288); assay: Inhibition of vasopressin 1A receptor (unknown origin) at 10 uM relative to control
Sequence of Vasopressin V1a receptor (Homo sapiens) (P37288 whole entry, looked up): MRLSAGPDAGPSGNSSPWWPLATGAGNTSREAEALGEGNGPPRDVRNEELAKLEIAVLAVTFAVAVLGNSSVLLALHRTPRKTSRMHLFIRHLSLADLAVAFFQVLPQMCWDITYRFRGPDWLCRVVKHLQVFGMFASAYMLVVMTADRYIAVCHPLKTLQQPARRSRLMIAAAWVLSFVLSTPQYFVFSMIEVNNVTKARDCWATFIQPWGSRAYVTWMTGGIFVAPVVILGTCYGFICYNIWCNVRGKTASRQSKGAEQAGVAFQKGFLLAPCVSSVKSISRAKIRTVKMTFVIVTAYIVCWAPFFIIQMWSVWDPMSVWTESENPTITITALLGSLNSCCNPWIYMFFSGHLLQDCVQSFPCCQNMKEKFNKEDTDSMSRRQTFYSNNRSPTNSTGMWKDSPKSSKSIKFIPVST

Homo sapiens = organism: Homo sapiens; assay: Inhibition of sodium channel (unknown origin) at 10 uM relative to control
[33] = target: Prostaglandin G/H synthase 1 (Homo sapiens) (UniProt P23219); assay: Effect on COX1 activity (unknown origin)
Sequence of Prostaglandin G/H synthase 1 (Homo sapiens) (P23219 whole entry): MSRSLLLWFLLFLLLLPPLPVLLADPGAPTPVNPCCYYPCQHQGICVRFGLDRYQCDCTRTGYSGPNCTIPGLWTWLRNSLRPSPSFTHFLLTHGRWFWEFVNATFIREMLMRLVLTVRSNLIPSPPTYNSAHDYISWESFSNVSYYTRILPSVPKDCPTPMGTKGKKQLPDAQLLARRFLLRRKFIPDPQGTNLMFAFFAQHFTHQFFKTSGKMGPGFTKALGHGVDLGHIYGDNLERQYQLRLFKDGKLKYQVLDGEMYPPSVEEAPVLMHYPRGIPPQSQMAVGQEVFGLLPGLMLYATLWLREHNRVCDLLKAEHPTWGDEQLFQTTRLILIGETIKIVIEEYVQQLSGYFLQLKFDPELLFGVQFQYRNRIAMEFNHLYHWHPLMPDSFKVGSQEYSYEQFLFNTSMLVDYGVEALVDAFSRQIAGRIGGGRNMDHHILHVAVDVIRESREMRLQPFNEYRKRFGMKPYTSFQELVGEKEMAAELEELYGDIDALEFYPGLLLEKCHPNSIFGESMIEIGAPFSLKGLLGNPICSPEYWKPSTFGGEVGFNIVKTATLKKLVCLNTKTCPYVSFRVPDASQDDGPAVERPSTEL

[34] = Toxicity in human cardiomyocyte assessed as change in cell health parameters upto 10 uM; details: stem cell-derived cardiomyocyte
[35] = Genotoxicity in Salmonella typhimurium by mini-Ames test; assay type: toxicity; details: salmonella enterica subsp. enterica serovar typhimurium
[36] = Genotoxicity in human peripheral blood lymphocytes by micronucleus assay; assay type: cell-based; details: pbl
[37] = Toxicity in guinea pig assessed as reduction in heart flow rate by Langendorff test; assay type: tissue-based, Cavia porcellus; details: in vivo
[38] = Toxicity in guinea pig assessed as effect on sino-atrial node function in heart by Langendorff test; assay type: tissue-based, Cavia porcellus; details: in vivo
[39] = Toxicity in rat assessed as effect on cardiac output by telemetry; details: in vivo
[40] = Toxicity in rat assessed as effect on left ventricular filling pressures by telemetry; details: in vivo

In the case of COc1nc(C2=NOC(C3CC3)C(c3ccc(Cl)cc3)N2)ccc1-n1cnc(C)c1 (stereo unspecified), the EC90 [1] is reported as 123 nM, the EC50 (Gamma-secretase) is reported as 9 nM and the CL free [2] is reported as 4 mL/min/kg. The Activity (Mus musculus) was 51%, the Activity (Rattus norvegicus [3]) was 39% and the Activity (Rattus norvegicus [4]) was 48%. It also gave an Activity (Rattus norvegicus [5]) of 380%, an Activity (Rattus norvegicus [6]) of 50% and an Activity (Rattus norvegicus [7]) of 36%. The Activity (Rattus norvegicus [8]) was 67%, the Activity [9] was 63% and the Activity [10] was 92%. It also gave an AUC(0-t) [11] of 32.9 µM·h, a Cmax [12] of 0.754 µM and a Cmax [13] of 6.09 µM. It also gave a bioavailability [14] of 86%, a bioavailability [15] of 66% and a bioavailability [16] of 113%. The half-life [17] was 8.7 h, the half-life [18] was 2.9 h and the half-life [19] was 3.9 h. The Vd [20] was 2.4 L/kg, the Vd [21] was 0.8 L/kg and the Vd [22] was 1.2 L/kg. The clearance [23] was 3.1 mL/min/kg, the clearance [24] was 3.4 mL/min/kg and the clearance [25] was 3.5 mL/min/kg. For the same compound, the CL [26] was < 20%, the CL [27] was < 20% and the CL [28] was < 20%. The Drug metabolism [29] was “Metabolite_Detected”, the Drug metabolism [30] was “Metabolite_Detected” and the IC50 (Cytochrome P450 2C9) was ≥ 14000 nM. The IC50 (Cytochrome P450 2D6) was 4500 nM, the “inhibition (INH)” value (Cytochrome P450 2B6) was “Not Active” and the inhibition [31] was > 50%. For the same compound, the inhibition [32] was > 50%, the inhibition (Homo sapiens) was > 50% and the Activity [33] was “inactive”. The Activity [34] was “Non-Toxic”, the Activity [35] was “Non-Toxic” and the Activity [36] was “Non-Toxic”. For the same compound, the Activity [37] was “Non-Toxic”, the Activity [38] was “Non-Toxic” and the Activity [39] was “Non-Toxic”. The Activity [40] was “Non-Toxic”.

Reference: ChEMBL document CHEMBL4837257, “Discovery of the Oxadiazine FRM-024: A Potent CNS-Penetrant Gamma Secretase Modulator” (J Med Chem, 2021)
